Laboratory results from patent US20130040882A1, “USE OF FIBROBLAST GROWTH FACTOR FRAGMENTS” (NOVARTIS AG, priority 2003, published 2013).
Where “and” joins values, the source holds several entries; their conditions need not be identical. Equal entries are not always repeated.

Test system: transcript levels in tissues (GH/IGF and glucagon/insulin axes, SSTR signalling)
Format: in vivo, cynomolgus monkeys
[1] = pituitary, 0.1 mg/animal/14 day, control 72
[2] = pituitary, 0.1 mg/animal/14 day, control 91
[3] = pituitary, 0.1 mg/animal/14 day, control 198
[4] = pituitary, 0.1 mg/animal/14 day, control 225

## cyclo[4-(NH2—C2H4—NH—CO—O)Pro-Phg-DTrp-Lys-Tyr(4-Bzl)-Phe] [SOM230]
liver
  ATPase, H+/K+ exchanging, beta polypeptide expression ↓ (fold change): polypeptide ↓ x2
  Adenylyl cyclase-associated protein expression ↑ (fold change): ↑ x1.5
  Arginine vasopressine receptor 2 expression ↑ (fold change): receptor 2 ↑ x2.5
  B lymphoid tyrosine kinase expression ↑ (fold change): ↑ x3.5
  BCL2-like 1 expression ↓ (fold change): ↓ x3.5
  Bone-derived GF expression ↑ (fold change): ↑ x3
  Bruton agammaglobulinemia a tyrosine kinase expression ↑ (fold change): ↑ x1.5
  Butyrate response factor 2 (EGF-response factor 2) expression ↑ (fold change): x2
  Ca++ channel, voltage-dependent, P/Q type, alpha 1A subunit expression ↓ (fold change): subunit ↓ x2.5
  Calcium/calmodulin-dependent protein kinase kinase 2, β expression ↑ (fold change): ↑ x3
  Calmodulin 2 (phosphorylase kinase, δ) expression ↑ (fold change): kinase, δ) ↑ x2
  Cdk 5, regulatory subunit 1 expression ↑ (fold change): subunit 1 ↑ x2.5
  Cdk like-2 expression ↓ (fold change): x2
  Cdki1A (p21/Cip1) expression ↑ (fold change): (p21/Cip1) ↑ x6
  Cdki 2D (p19, inhibits CDK4) expression ↓ (fold change): ↓ x2.5
  Corticosteroid binding globulin precursor expression ↑ (fold change): precursor ↑ x2
  DAG kinase, α (80 kD) expression ↑ (fold change): (80 kD) ↑ x3
  DAG kinase, δ (130 kD) expression ↑ (fold change): (130 kD) ↑ x1.5
  Death-associated protein 6 expression ↓ (fold change): ↓ x2.5
  Dopamine receptor D2 expression ↑ (fold change): receptor D2 ↑ x3.5
  Dopamine receptor D3 expression ↑ (fold change): receptor D3 ↑ x2
  EGF (β-urogastrone) expression ↓ (fold change): urogastrone) ↓ x2.5
  EGF-like repeats and discoidin I-like domains 3 expression ↓ (fold change): domains 3 ↓ x1.5
  EGFR (avian erythroblastic leukemia viral (v-erb-b) oncogene homolog) expression ↑ (fold change): homolog) ↑ x2
  FGFR 2 (bacteria-expressed kinase, keratinocyte growth factor receptor, craniofacial dysplasia) expression ↑ (fold change): dysplasia) ↑ x2
  Fas-activated serine/threonine kinase expression ↑ (fold change): kinase ↑ x1.5
  Fms-related tyrosine kinase 1(VEGF/vascular permeability factor receptor) expression ↓ (fold change): receptor) ↓ x1.5
  GABA (A) receptor, γ2 precursor expression ↑ (fold change): precursor ↑ x4
  GABA(A) receptor-associated protein expression ↑ (fold change): protein ↑ x1.5
  GCSF expression ↑ (fold change): GCSF ↑ x3.5
  GFR-bound protein 2 expression ↓ (fold change): protein 2 ↓ x2.5
  Gene expression (AvgDiff): GR: 80
  Gene expression (AvgDiff): IGF-2: 269
  Gene expression (AvgDiff): IGFBP2: 4,476
  Gene expression (AvgDiff): Insulin promoter factor 1, homeodomain transcription factor: 42
  Glucacon receptor expression ↑ (fold change): ↑ x5
  Glutamate receptor, metabotropic 4 expression ↑ (fold change): ↑ x1.5
  Glycosylphosphatidylinositol specific phospholipase D1 expression ↓ (fold change): ↓ x1.5
  Growth differentiation factor 1 expression ↑ (fold change): 1 ↑ x3
  IFN regulatory factor 5 expression ↑ (fold change): factor 5 ↑ x2.5
  IFN-induced leucine zipper protein expression ↑ (fold change): protein ↑ x1.5
  IFN-inducible RNA-dependent protein kinase expression ↑ (fold change): protein kinase ↑ x4
  IFN-related developmental regulator 2 expression ↓ (fold change): regulator 2 ↓ x1.5
  IFN-stimulated protein, 15 kDa expression ↓ (fold change): protein, 15 kDa ↓ x2
  IFNγ responsive transcript expression ↑ (fold change): transcript ↑ x1.5
  IGF-2 expression ↓ (fold change): IGF-2 ↓ x2.5
  IGFBP2 expression ↑ (fold change): IGFBP2 ↑ x2
  IL2 R, γ chain, precursor expression ↑ (fold change): precursor ↑ x2.5
  IP 5-phosphatase expression ↑ (fold change): ↑ x2
  Insulin promoter factor 1, homeodomain transcription factor expression ↓ (fold change): ↓ x1.5
  Natriuretic peptide receptor A/guanylate cyclase A (atrionatriuretic peptide receptor A) expression ↑ (fold change): ↑ x6
  Nck, Ash and PLC γ binding protein NAP4 expression ↑ (fold change): NAP4 ↑ x3.5
  PDGF, α polypeptide expression ↑ (fold change): polypeptide ↑ x1.5
  PDGFR, α polypeptide expression ↑ (fold change): polypeptide ↑ x2
  PI transfer protein expression ↑ (fold change): ↑ x3.5
  PI transfer protein, β expression ↓ (fold change): β ↓ x1.5
  PKC substrate 80K-H expression ↑ (fold change): 80K-H ↑ x1.5
  PKC, ι expression ↓ (fold change): PKC, ι ↓ x1.5
  PLA2, group IIA (platelets, synovial fluid) expression ↑ (fold change): fluid) ↑ x5.5
  PLC, γ1 (formerly subtype 148) expression ↑ (fold change): subtype 148) ↑ x2
  Rb 1 (including osteosarcoma) expression ↓ (fold change): ↓ x2
  Rb binding protein expression ↑ (fold change): ↑ x2.5
  Rb-like 2 (p130) expression ↑ (fold change): x3
  Receptor (calcitonin) activity modifying protein 1 precursor expression ↑ (fold change): precursor ↑ x1.5
  Solute carrier family 9 (sodium/hydrogen exchanger), isoform 3 regulatory factor 1 expression ↑ (fold change): ↑ x11.5
  Solute carrier family 11 (Na+/phosphate symporters), member 1 expression ↑ (fold change): member 1 ↑ x2.5
  TGF, β1 expression ↓ (fold change): TGF, β1 ↓ x1.5
  TGFβ activated kinase-binding protein 1 expression ↑ (fold change): protein 1 ↑ x2.5
  TGFβR III (betaglycan, 300kδ) expression ↓ (fold change): ↓ x2
  THR interacting protein 15 expression ↑ (fold change): protein 15 ↑ x1.5
  THR sulfo transferase expression ↑ (fold change): transferase ↑ x2.5
  TNF (ligand) superfamily, member 10 expression ↑ (fold change): member 10 ↑ x1.5
  TNF-α converting enzyme expression ↓ (fold change): enzyme ↓ x2
  δ sleep inducing peptide, immunoreactor expression ↑ (fold change): ↑ x2.5
pituitary, 0.1 mg/animal/14 day, control 20
  PP 1, regulatory (inhibitor) subunit 5 AvgDiff: 75
pituitary, 0.1 mg/animal/14 day, control 22
  SSTR3 AvgDiff: 57
pituitary, 0.1 mg/animal/14 day, control 40
  Cell division cycle 25B AvgDiff: 162
pituitary, 0.1 mg/animal/14 day, control 42
  GLUR 2, precursor AvgDiff: 59
pituitary, 0.1 mg/animal/14 day, control 44
  BCL2-antagonist of cell death AvgDiff: 69
pituitary, 0.1 mg/animal/14 day, control 58
  PTP, receptor type, T AvgDiff: 101
pituitary, 0.1 mg/animal/14 day, control 61
  Putative Ca++ transporting ATPase AvgDiff: 101
pituitary, 0.1 mg/animal/14 day, control 66
  K+ voltage-gated channel, Shab-related subfamily, member 1 AvgDiff: 22
[1]
  PI-3-kinase, catalytic, α polypeptide AvgDiff: 21
  RAB 5C, member RAS oncogene family AvgDiff: 162
pituitary, 0.1 mg/animal/14 day, control 81
  Cdk inhibitor 2C (p18, inhibits CDK4) AvgDiff: 184
pituitary, 0.1 mg/animal/14 day, control 86
  ATPase, Na+/K+ transporting, α 2 (+) polypeptide AvgDiff: 184
[2]
  PI-3-kinase, catalytic, δ polypeptide AvgDiff: 34
  S-phase response (cyclin-related) AvgDiff: 129
pituitary, 0.1 mg/animal/14 day, control 111
  PLC, γ 1 (formerly subtype 148) AvgDiff: 40
pituitary, 0.1 mg/animal/14 day, control 112
  SHB adaptor protein (a Src homology 2 protein) AvgDiff: 38
pituitary, 0.1 mg/animal/14 day, control 125
  PI transfer protein, β AvgDiff: 42
pituitary, 0.1 mg/animal/14 day, control 128
  ATPase, H+/K+ exchanging, α polypeptide AvgDiff: 20
pituitary, 0.1 mg/animal/14 day, control 129
  Phosphatase and tensin homolog (mutated in multiple advanced cancers 1) AvgDiff: 36
pituitary, 0.1 mg/animal/14 day, control 132
  K+ channel, subfamily K, member 3 (TASK) AvgDiff: 26
pituitary, 0.1 mg/animal/14 day, control 164
  Rab geranylgeranyltransferase, α subunit AvgDiff: 104
pituitary, 0.1 mg/animal/14 day, control 171
  MAPKKK5 AvgDiff: 278
pituitary, 0.1 mg/animal/14 day, control 178
  Neuroblastoma-amplified protein AvgDiff: 237
pituitary, 0.1 mg/animal/14 day, control 187
  Cyclin D3 AvgDiff: 338
[3]
  Cdk inhibitor 2D (p19, inhibits CDK4) AvgDiff: 99
  Cyclin F AvgDiff: 74
pituitary, 0.1 mg/animal/14 day, control 216
  BCL2-associated athanogene AvgDiff: 318
[4]
  Core-binding factor, runt domain, α subunit 2; translocated to, 1; cyclin D-related AvgDiff: 491
  Forkhead box H1 AvgDiff: 117
pituitary, 0.1 mg/animal/14 day, control 230
  Rab geranygeranyltransferase, β subunit AvgDiff: 284
pituitary, 0.1 mg/animal/14 day, control 258
  Bax gamma AvgDiff: 326
pituitary, 0.1 mg/animal/14 day, control 292
  ATPase, Na+/K+ transporting, β 3 polypeptide AvgDiff: 610
pituitary, 0.1 mg/animal/14 day, control 296
  IP-4-phosphatase, type 1, isoform b AvgDiff: 177
pituitary, 0.1 mg/animal/14 day, control 342
  BCL2/adenovirus E1B 19kD-interacting protein 3 AvgDiff: 458
pituitary, 0.1 mg/animal/14 day, control 493
  Dual specificity phosphatase 8 AvgDiff: 170
pituitary, 0.1 mg/animal/14 day, control 497
  Forkhead box O3A AvgDiff: 257
pituitary, 0.1 mg/animal/14 day, control 504
  Programmed cell death 6 AvgDiff: 635
pituitary, 0.1 mg/animal/14 day, control 2,351
  PKC inhibitor AvgDiff: 3,333 and 3,332
spleen
  ATPase, Na+/K+ transporting, β1 polypeptide expression ↑ (fold change): polypeptide ↑ x2.5
  Adrenergic, α-2C-, receptor expression ↓ (fold change): ↓ x2
  Arginine vasopressine receptor 1B expression ↑ (fold change): receptor 1B ↑ x2
  Bcl-2 binding component 3 expression ↑ (fold change): ↑ x2.5
  Ca++ channel, voltage-dependent, α2/δ subunit 1 expression ↑ (fold change): α2/δ subunit 1 ↑ x2
  Ca++ channel, voltage-dependent, α2/δ subunit 2 expression ↑ (fold change): ↑ x1.5
